Measurements: US20210069157A1, “AGENT FOR TREATMENT OF PBC” (Kowa Company, Ltd, priority 2016, published 2021)

Tests used:
[1] = system: patients with dyslipidemia showing a high level of triglyceride (TG); test: Pooled clinical trial data (8 tests, 12 weeks or more): effects on ALP and total bilirubin; type: in vivo, human; set-up: ALP level, Rate of change (LSmean) / total bilirubin level, Rate of change (LSmean): unit not given here; settings: for ALP level, Rate of change (LSmean) / total bilirubin level, Rate of change (LSmean): 12 weeks vs baseline; for ALP level, Rate of change (LSmean): placebo 0.5; for total bilirubin level, Rate of change (LSmean): placebo 6.1
Experimental: Compound. A was administered at a dose of 0.05 to 0.4 mg per day to Compound A group. […] Note that comparisons between the groups were investigated by using covariance analysis with baseline levels used as covariates.

[2] = system: patients with dyslipidemia showing a high level of TG being treated with ursodeoxycholic acid; test: Pooled clinical trial data, subset being treated with ursodeoxycholic acid: effects on ALP and total bilirubin; type: in vivo, human
Experimental: Data of patients being treated with ursodeoxycholic acid (15 cases in total) were extracted from the data obtained in a clinical trial (8 tests with an administration period of 12 weeks or more) of Compound A, which had been performed for patients with dyslipidemia showing a high level of TG, the effects of Compound A for the ALP and the total bilirubin were investigated. Compound A was administered at a dose of 0.05 to 0.4 mg per day to Compound A group. Further, placebo was administered to a control group. Each compound was administered to Compound A group and a control group for 12 weeks, and changes in the levels of ALP before and after the administration are shown in Table 3 and FIG. 3, and changes in the levels of total bilirubin before and after the administration are shown in Table 4 and FIG. 4. Note that comparisons between the groups were investigated by using covariance analysis with baseline levels used as covariates.

[3] = 0.05 to 0.4 mg per day, 12 weeks
[4] = patients being treated with ursodeoxycholic acid, 12 weeks

Compound: CC[C@@H](Oc1cccc(CN(CCCOc2ccc(OC)cc2)c2nc3ccccc3o2)c1)C(=O)O [Compound A, (R)-2-[3-[[N-(benzoxazol-2-yl)-N-3-(4-methoxyphenoxy)propyl]aminomethyl]phenoxy] butyric acid]
- effect on level of ALP as compared with placebo [1, 3]: decreases dose-dependently
- effect on level of total bilirubin as compared with placebo [1, 3]: decreases dose-dependently
- ALP level, Rate of change (LSmean) ([1]; Compound A 0.05 mg/day): −13.4
- total bilirubin level, Rate of change (LSmean) ([1]; Compound A 0.05 mg/day): −16.4
- total bilirubin level, 12 Weeks ([1]; Compound A 0.05 mg/day, 12 weeks, n 37, baseline 0.8): 0.6 mg/dL
- ALP level, 12 Weeks ([1]; Compound A 0.05 mg/day, 12 weeks, n 37, baseline 234.4): 201.5 IU/L
- ALP level, Rate of change (LSmean) ([1]; Compound A 0.1 mg/day): −22.1
- total bilirubin level, Rate of change (LSmean) ([1]; Compound A 0.1 mg/day): −7.7
- total bilirubin level, 12 Weeks ([1]; Compound A 0.1 mg/day, 12 weeks, n 127, baseline 0.8): 0.7 mg/dL
- ALP level, 12 Weeks ([1]; Compound A 0.1 mg/day, 12 weeks, n 127, baseline 228.4): 177.4 IU/L
- ALP level, Rate of change (LSmean) ([1]; Compound A 0.2 mg/day): −29.4
- total bilirubin level, Rate of change (LSmean) ([1]; Compound A 0.2 mg/day): −11.9
- total bilirubin level, 12 Weeks ([1]; Compound A 0.2 mg/day, 12 weeks, n 846, baseline 0.8): 0.7 mg/dL
- ALP level, 12 Weeks ([1]; Compound A 0.2 mg/day, 12 weeks, n 846, baseline 235.6): 164.7 IU/L
- ALP level, Rate of change (LSmean) ([1]; Compound A 0.4 mg/day): −35.3
- total bilirubin level, Rate of change (LSmean) ([1]; Compound A 0.4 mg/day): −10.4
- total bilirubin level, 12 Weeks ([1]; Compound A 0.4 mg/day, 12 weeks, n 319, baseline 0.8): 0.6 mg/dL
- ALP level, 12 Weeks ([1]; Compound A 0.4 mg/day, 12 weeks, n 319, baseline 225.1): 145.0 IU/L
- effect on level of ALP compared with fenofibrate 200 mg per day ([1]; Compound A at a dose of 0.1 mg or more, 12 weeks): decreases the level of ALP more strongly than the fenofibrate at the maximum clinical dose
- total bilirubin level, Rate of change (LSmean) ([2]; Compound A 0.05 to 0.4 mg per day, 12 weeks vs baseline, patients on UDCA, placebo 41.2): −18.5
- ALP level, Rate of change (LSmean) ([2]; Compound A 0.05 to 0.4 mg per day, 12 weeks vs baseline, patients on UDCA, placebo −1.1): −22.6
- total bilirubin level, 12 Weeks ([2]; Compound A 0.05 to 0.4 mg per day, 12 weeks, patients on UDCA, n 13, baseline 0.7): 0.6 mg/dL
- ALP level, 12 Weeks ([2]; Compound A 0.05 to 0.4 mg per day, 12 weeks, patients on UDCA, n 13, baseline 295.5): 229.5 IU/L
- effect on level of ALP [2, 4]: decreases
- effect on level of total bilirubin [2, 4]: decreases
